Literature values in patent US20060128997A1, “New method for the preparation of 1,5-bis(4-hydroxy-3-metoxy-phenyl)-penta-1,4-dien-3-one and derivatives with antitumoral properties” (priority 2003, published 2006).

How the values were obtained:
HT-1080 = conditions: literature values (Banskota, Kimoto); unit not given; cited from earlier work
Colon L5-26 = conditions: literature values (Banskota, Kimoto); unit not given; cited from earlier work

Structure (SMILES) | Cytotoxicity HT-1080 (HT-1080) | Cytotoxicity Colon L5-26 (Colon L5-26)
CC(C)=CCc1cc(C=CC(=O)O)cc2c1OC(C)(C)C(O)C2 (centres unmarked) [Compound 1, 3-hydroxy-2,2-dimethyl-8-prenylchromane-6-propenoic acid] | 71.53 | 77.07
CC(C)=CCc1cc(C=CC(=O)O)cc2c1OC(C)(C)C=C2 [Compound 2, 2,2-dimethyl-8-prenyl-2H-1-benzopyranbenzopyrene-6-yl-2-propenoic acid] | 46.86 | 50.22
CC(C)=CCc1cc(C=CC(=O)O)cc(CC=C(C)C)c1O [Compound 3, 3,5-diprenyl-4-hydroxycinnamic acid] | 45.47 | 59.32
CC(C)=CCc1cc(C=CC(=O)O)ccc1OC(=O)CCc1ccccc1 [Compound 4, 4-dihydrocinnamoyloxy-3-prenylcinnamic acid] | 25.94 | 77.90
